Our source for the melting point values is a melting point compilation (Tetko et al.; mined from patent text by program, amines drawn as free bases though some values may be those of a salt).

Structures are written as SMILES.

What is called melting point is the temperature, or range, at which the solid turns liquid. The compound `COc1cc(OC)cc(Sc2ccc([N+](=O)[O-])cc2)c1` had a melting point of 63 to 65 °C.
Then `CC1(CC2CCCC2)Cc2cc(CC(=O)O)c(Cl)c(Cl)c2C1=O` (stereo not drawn), with 146 to 148 °C.
Compound `C#Cc1cccc(-n2ncc3c(NCc4ccc5c(c4)OCCO5)ncnc32)c1` registered a melting point of 161 °C.
`C1=C(CCCN2CCCCC2)c2ccccc2C12CCCCC2` showed a melting point of 146 to 148 °C.
For `N#C/C=C/c1cccc(Cl)c1` the value was 26 to 28 °C; for `OCc1ccc(-c2ccc(OC3SCC(O)C(O)C3O)cn2)cc1` (stereo not drawn), 215 °C.
For `CCCC(Cn1ncnc1S)c1ccc(Cl)cc1Cl` (stereo not drawn) the value was 103 °C; for `CCCc1nc(C)n2c(=O)n(CC(=O)O)nc2c1Cc1ccc(NC(=O)c2ccccc2S(=O)(=O)O)cc1`, 296 to 300 °C; for `CN1C(=O)CC[C@]2(C)c3ccc(-c4cc(C(F)(F)F)nc5c(C(F)(F)F)cccc45)cc3CC[C@@H]12`, 100 to 106 °C.
`CC1(CF)C(=O)N(c2ccc(C#N)c(C(F)(F)F)c2)C(=O)N1CCF` (stereo not drawn): the melting point lay in the range of 137 to 138 °C.
For `COC(=O)C1CC(O)CN1C(=O)c1cc2c(cc1[N+](=O)[O-])OCO2` (stereo not drawn), the melting point came to 166 °C.
Then `CC1Nc2cc(F)ccc2-n2cccc21` (stereo not drawn), with 76 to 78 °C.
For `COc1ccc2[nH]cc(-c3cc4c(C(N)=O)ccnc4[nH]3)c2c1` the value was more than 320 °C.
The compound `COc1cc(C=C(C(C)=O)C(C)=O)ccc1O` yielded a melting point of 135 to 137 °C.
Then `OC1CSC(Oc2cnc(-c3ccncc3)c(Cl)c2)C(O)C1O` (stereo not drawn), with 226 °C; and `O=S(=O)(NCC1CCN(CCCOc2ccc(F)cc2)CC1)c1cccc2cnccc12`, with 123 to 125 °C.
For `CC(C)(C)OC(=O)NC1CN(C(C(=O)OC(c2ccccc2)c2ccccc2)c2ccc(OC(=O)OC(C)(C)C)cc2)C1=O` (stereo not drawn) the value was 155 to 157 °C; for `Cc1cc(Cc2cnc(N[N+](=O)[O-])[nH]c2=O)cnc1C`, 212 to 213 °C; for `Cc1noc(NS(=O)(=O)c2ccsc2C(=O)Nc2ccccc2)c1Br`, 168 to 170 °C.
Then `CCCCCCC[C@H]1CC[C@H](CCc2ccc(-c3ccc(Br)cc3F)cc2)CC1`, with 54 °C; and `COc1cccc(C2(CCCCC(=O)O)CCCCC2=O)c1` (stereo not drawn), with 89 to 91 °C; and `O=S(=O)(Nc1c(Cl)cccc1Cl)c1nc2ncccn2n1`, with 278 to 280 °C.
As to `CCc1cccc2c1C(=O)N1CCC[C@H]1c1c(C(=O)OC(C)(C)C)ncn1-2`, the melting point fell in the range of 155 to 156 °C.
`COP(=O)(NC1C(=O)N2C(C(=O)OCc3ccccc3)=C(C=CN(C)C)CSC12)OC` (stereo not drawn) came in with a melting point of 126 to 128 °C.
Then `CCCc1c(OCCCCCC(=O)c2cc(C)c(O)c(O)c2C)ccc(C(=O)O)c1O`, with 121 to 125 °C; and `CC(C)N=C(NC#N)Nc1cc(Cl)cc(Cl)c1`, with 156 to 158 °C; and `NC1(C2CCN(c3c(F)cc4c(=O)c(C(=O)O)cn(C5CC5)c4c3F)C2)CC1` (stereo not drawn), with 227 to 230 °C.
Then `O=C1c2ccccc2C(=O)N1CC(Br)(c1ccccc1)C(Br)Br` (stereo not drawn), with 175 to 176 °C; and `CCCC1(CC)Cc2cc(OCC(=O)O)c(Cl)c(Cl)c2C1=O` (stereo not drawn), with 126 °C.
Then `CCOC(=O)CCC(=O)Nc1cc(OC)c(OC)cc1C(=O)OCC`, with 125 °C.
Take `CCOCCCNC(=O)C(C)(C(C)C)C(C)C`: the melting point worked out at 30 °C.
As to `CSc1nn(C(=O)Oc2ccccc2)c(=O)n1N`, the melting point amounted to 161 °C.
On to `Nc1c(N=O)c(=O)n(CC2CCCC2)c(=O)n1CC1CCCC1`, for which the melting point is 254 to 255 °C.
For `CCCn1c(=O)c(-c2ccccc2)c2n(c1=O)CC=CS2` the value was 142 to 144 °C; for `COC(=O)C(Oc1ccc(Cl)c(C(F)(F)F)c1)c1ccc(Cl)cc1` (stereo not drawn), 58 °C.
For the compound `CC(C)(C(=O)c1ccc(SCCCCS)cc1)N1CCOCC1`, the melting point was determined as 98 °C.
In the case of `CC1(C)CCC2=C(C1=O)C(c1ccc(F)c(Br)c1)C1=C(COCC1=O)N2` (stereo not drawn), the melting point was more than 260 °C.
On to `NNc1cc(Nc2ccc(F)c(C(F)(F)F)c2)nc(Cl)n1`, for which the melting point fell in the range of 102 to 103 °C.
Regarding `COc1cc(Nc2c(C#N)cnc3cc(/C=C/CCN4CCOCC4)ccc23)cc(OC)c1OC`, the melting point is 128 to 130 °C.
On to `CCCCC(=O)NC1(c2ccc(C(C)C)cc2OC(=O)CCCC)C(=O)c2ccccc2C1=O`, for which the melting point lay in the range of 117 to 118 °C.
Then `Cc1cc(-c2cc(C(F)(F)F)n3ncc(C#N)c3n2)ccc1Cl`, with 216 °C; and `CCOC(=O)c1ncsc1-c1cccc(OCc2cccc(C#N)c2)c1`, with 85 °C; and `COc1ccc(-c2nc(S(=O)(=O)C(F)(F)C(F)F)[nH]c2-c2cccs2)cc1`, with 163 to 164 °C.
`CCCCCCCCOC(=O)COc1cc(F)ccc1C(=S)NCc1cccc([N+](=O)[O-])c1` gave a melting point of 69 to 72 °C.
For `NC(=O)Cc1ccc(-c2ccc3nnn(Cc4ccc5ncccc5c4)c3n2)cc1`, the melting point lay within 220 to 223 °C.
Then `Cc1cccc([N+](=O)[O-])c1C#N`, with 101 to 103 °C.
In the case of `Cc1cc(Br)cnc1CCCCNc1ncc(Cc2ccc(Cl)cc2)c(=O)[nH]1`, the melting point was in the range of 149 to 150 °C.
`CC(=O)OCc1ccc(C(=O)O)cc1` displayed a melting point of 120 to 123 °C.
For `O=c1oc2ccc(Cl)cc2c(Cl)c1Cl` the value was 133 to 135 °C; for `CCCc1c(OCc2ccc(C(=O)OC)cc2)ccc(C(C)=O)c1O`, 99.5 to 100 °C.
For `Cc1nccn1C(c1ccccc1)(c1ccccc1)c1ccccc1Cl` the value was 177 °C.
`O=C(CN1CCOCC1)Oc1ccc2c(=O)c3c(oc2c1)C(=Cc1ccccc1)CC3` registered a melting point of 204 to 206 °C.
For `COCOCc1nc2nccnc2c(=O)[nH]1` the value was 161 to 163 °C; for `COc1nc(OC)nc(N(C)C(=O)NS(=O)(=O)c2ccccc2C(F)F)n1`, 164 to 170 °C.
With `COC1SC(c2ccncc2)=C(C)NC1=O` (stereo not drawn), the melting point was 134 to 135 °C.
As to `CCOC(=O)CS(=O)(=O)Cc1cccc(-c2c(CC(=O)Nc3ccc(F)cc3C(F)(F)F)c(=O)oc3cc(Cl)c(C)cc23)c1`, the melting point was 230 to 231 °C.
`CC(=O)c1ccnc(N(C)C)c1` returned a melting point of 37 to 42 °C.
Then `OCc1cn(Cc2ccc(OCc3coc(-c4ccccc4)n3)cc2)nc1-c1cccs1`, with 155 to 156 °C; and `Cn1c(=O)c2c(nc(C=Cc3cccc(N)c3)n2C)n(C)c1=O`, with 222 to 224 °C; and `Cn1c(=O)c2c(nc(C=Cc3cccc(C(F)(F)F)c3)n2C)n(C)c1=O`, with 232 to 236 °C.
For `C=CCCCc1ccc(C=CC(=O)c2ccc(OCC=C(C)C)cc2)c(OCC(=O)O)c1` the value was 116 to 118 °C; for `C[Si](C)(C)C#Cc1ccc2c(c1)C(c1ccccc1)=NCc1c(C(=O)OCC(F)(F)F)ncn1-2`, 107 to 110 °C; for `CCCS(=O)(=O)Nc1nc(CN2CCN(C(c3ccccc3)c3ccccc3)CC2)cs1`, 165 to 167 °C.
For `CCC(CC)n1nnc2cc(C(F)(F)F)cc([N+](=O)[O-])c21` the value was 42 to 45 °C; for `O=S1(=O)NC(C2CCCCC2)=Nc2cccc(CO)c21`, 220 to 223 °C; for `CC(=O)Nc1nc(O)c2cc(C=Cc3ccc(C(=O)O)cc3)cnc2n1`, more than 300 °C.
Consider `CC(C)(C)c1ccc(C(=O)Nc2cn3nc(N)ccc3n2)cc1`, for which the melting point was in the range of 267 to 268 °C.
For `NC(=O)c1cccc(-c2cccc(O)c2)c1` the value was 148 to 151 °C; for `Cn1cc(C2=C(c3ccsc3)C(=O)NC2=O)c2ccccc21`, 211 to 212 °C; for `O=C(O)CS(=O)(=O)Oc1cccc(-c2cn3c(n2)sc2ccccc23)c1`, 156 to 158 °C.
For `CC(C)(C)c1nnc(N=C2SC[C@@H]3Cc4ccccc4CN23)s1` the value was 137 °C.
In turn, `Cc1c(NC(=O)CC(C)(C)C)cc2c(c1C)OC(C)(C)C2(O)c1ccc2ccccc2c1` (stereo not drawn) returned a melting point of 142 to 144 °C.
Take `O=C(C=Cc1cccc2ccccc12)C=Cc1cccc2ccccc12`: the melting point came to 128 °C.
`O=C1CCn2c(-c3ccccc3)nc3c(Cl)ccc1c32` showed a melting point of 206 to 209 °C.
The compound `O=C(CSc1ccccc1)NNC(=O)N1Cc2ccccc2Oc2ccc(Cl)cc21` had a melting point of 172 to 175 °C.
For `CSc1cccc(Nc2nc(OCC3CCCCC3)c3[nH]cnc3n2)c1` the value was 190 to 192 °C; for `O=C(O)C(Cc1ccccc1)Oc1c(Br)cc(-c2ccc(-c3c(Cc4ccccc4)sc4ccccc34)cc2)cc1Br` (stereo not drawn), 87 to 89 °C.
For the compound `NS(=O)(=O)c1ccc(-c2noc(-c3cnn4c(C(F)(F)F)cc(-c5ccc(Cl)cc5)nc34)n2)s1`, the melting point was found to be 294 °C.
Consider `COC(=O)c1cnnc2ccccc12`, for which the melting point lay in the range of 57 to 58 °C.
In turn, `CCCCCCCCCCCCCCCCCCOc1c(OCC(CC)CCCC)ccc2c1C(=O)c1ccccc1C2=O` (stereo not drawn) registered a melting point of 61 to 68 °C.
`COC(=O)C1(NC(=O)Cc2cc(Br)c(F)cc2C)CCN(OC)CC1` came in with a melting point of 192 to 193 °C.
For `NC(=O)COC(=O)c1c(Cl)cccc1Cl` the value was 114 to 116 °C; for `CCN1C(=O)COc2ccc(-c3sc(N)nc3-c3cccc(C)n3)cc21`, 228 to 230 °C.
Then `OCCOCCn1ccc2ncnc(Nc3ccc(OCc4cccc(F)c4)c(Cl)c3)c21`, with 168 to 169 °C; and `NCCCc1cn(C(c2ccccc2)(c2ccccc2)c2ccccc2)cn1`, with 112 to 113 °C; and `O=C(NC1=NCCCC1)Nc1ccc(Cl)cc1`, with 200 to 203 °C.
For `CN(C)Cc1cc(C(=O)c2ccc3ccccc3c2)cc(C(C)(C)C)c1O` the value was 162 to 164 °C; for `Nn1nc(-c2ccccc2)cc1OCCN1CCCC1`, 138 °C.
